For experiment [1], the system named is IL-6. Description: IL-6 release from IL-1β-stimulated primary human corneal fibroblast cells (ELISA). Format: cell-based. To be noted: for % Inhibition of IL-6 (pg/μg dsDNA): 30 min pretreatment, 10 ng/ml IL-1β for 3 hours, normalized to dsDNA. As for the experimental part:
Primary human corneal fibroblast cells were obtained from one donor and grown to confluence in Ham's F-10 medium. Fibroblasts were transferred to serum-free media and were pretreated for 30 minutes with various concentrations of 15(S)-HETE. The cells were then stimulated with 10 ng/ml IL-1β for 3 hours and aliquots of the supernatants were assayed for IL-6 by ELISA. Data were normalized by the amount of double stranded DNA (dsDNA) extracted from the cells.

For experiment [2], the system named is IL-8. The conditions noted are these: 1 μM to 0.1 nM; human bone marrow stromal cells; cited from earlier work.
Experiment [3] relates to IL-6. The conditions noted are these: bone marrow stromal cells; cited from earlier work.

Molecules are shown by their SMILES. pIC50: −log10 of the molar value. Marks after values point to notes of the source that are not given here.

For orientation: pIC50 means the IC50 on a negative log10 scale, so that one unit is a factor of ten. Take `CCCCC[C@H](O)/C=C/C=C\C/C=C\C/C=C\CCCC(=O)O` [15(S)-HETE, 15-Hydroxyeicosatetraenoic acid]: the “% Inhibition of IL-6 (pg/μg dsDNA)” value was 53.1% in experiment [1] (15(S)-HETE 0.5 μg), 67.9* % in experiment [1] (15(S)-HETE 1 μg), 88.6** % in experiment [1] (15(S)-HETE 2 μg) and 90.4** % in experiment [1] (15(S)-HETE 3 μg). Also, the negative logarithm of the IC50 (pIC50) in experiment [1] (primary human corneal fibroblast cells, IL-1β stimulated, read-out: IC50 for IL-6 inhibition) was above 6.30. Moreover, the “effect on the spontaneous and serum-induced production of IL-8” value in experiment [2] was “no effect”. In addition, the “effect on the spontaneous, serum- and cytokine-induced IL-6 synthesis” value in experiment [3] is “no effect”.

The values above are taken from patent US6825232B2, “Use of hydroxyeicosatetraenoic acid compounds to treat ophthalmic inflammatory disorders” (Alcon, Inc., priority 2002, dated 2004).
